The record followed here is US20110052725A1, “THERAPEUTIC AGENT FOR INFECTIOUS SKIN AND MUCOSAL DISEASE” (priority 2007, published 2011).

Experiment [1] deals with herpesvirus type 1 (HSV1 kos). The experiment can be described thus: Antiviral activity against herpesvirus type 1 (TCID50, CRFK cell). Format: cell-based. The protocol:
An antiviral activity against herpesvirus type 1 (HSV-1, Herpes simplex virus type 1) (virus which causes mainly herpes labialis, and also causes herpetic stomatitis, herpetic keratitis and herpes simplex encephalitis) was measured. The method will be described below.
Five-hundred ml of a culture solution of virus (herpesvirus type 1 kos) which had been cultured with CRFK cell (feline kidney cell) was centrifuged at 3,000 rpm for 3 hours, and to the sediment was added 4 ml of distilled water to thereby prepare a viral suspension. The viral suspension was sterilized by filtration using a 0.45 μm membrane filter, and cryopreserved at −80° C. until its usage.
(§1) Each of the agents was diluted with sterile distilled water, to thereby prepare a dilution series of 1,250 ppm, 125 ppm, 12.5 ppm, 1.25 ppm and 0.125 ppm.
(§2) In order to neutralize chlorine dioxide in the agent, a 0.0025M sodium thiosulfate solution was prepared using Eagle MEM, and sterilized by filtration using a 0.22 μm membrane filter.
(§3) To each of the various concentrations of the agents (240 μl) was added virus (60 μl) and stirred, to thereby sensitize the virus with the agent, for 15, 30, 60, 120 or 180 seconds. Forty μl of virus from each reaction liquid was added to a 0.0025M sodium thiosulfate solution (360 μl), to thereby neutralize chlorine dioxide. As a virus control, one diluted with distilled water, instead of the agent, was used.
(§4) Each of the agent-treated virus liquid and the control virus liquid diluted with distilled water was neutralized with a 0.0025M sodium thiosulfate solution, and then neutralized virus (100 μl) was diluted with Eagle MEM (900 μl), to obtain a 10-fold dilution series of the treated virus.
(§5) CRFK cell (50 μl/well) was incubated in a 96-well microplate for 3 days, and the diluted virus was inoculated therein (50 μl/well, 4 well/dilution). Each cell was cultured in a CO2 incubator at 37° C. for 5 days, and CPE was observed. TCID50 was calculated based on the above-mentioned equation 1 (Kerber's formula).

The subject of experiment [2] is herpesvirus type 2 (HSV2 UF-strain). Description: Antiviral activity against herpesvirus type 2 (TCID50). Format: cell-based. The protocol: as §1, §2, §3, §4, §5
The antiviral activity against herpesvirus type 2 (HSV-2, Herpes simplex virus type 2) (virus which causes mainly genital herpes, neonatal herpes, herpetic meningitis and herpetic myelitis) was measured. Substantially the same test as in Example 10 was performed, except that the herpesvirus type 2 (standard strain; UF strain) was used instead of the herpesvirus type 1.

Marks after values point to notes of the source that are not given here.

Consider `OCl` [Sodium hypochlorite], for which the “Reduction of viral infectivity titer” value in experiment [1] (1 ppm or less) was “apparent reduction of the infectivity titer was not observed”; in experiment [1] (10 ppm, 180 seconds), no more than 1 log; in experiment [1] (discussion, compared with chlorine dioxide 10 ppm for 15 seconds), “apparent reduction of the infectivity titer was not observed”. In addition, the “Viral infectivity titer TCID50” value is 4.25 TCID50/50 μL unit (10^n) in experiment [2] (0.1 ppm, agent sensitized time 0 second); 4.25 TCID50/50 μL unit (10^n) in experiment [2] (0.1 ppm, agent sensitized time 30 second); 4.25 TCID50/50 μL unit (10^n) in experiment [2] (0.1 ppm, agent sensitized time 60 second); 4.25 TCID50/50 μL unit (10^n) in experiment [2] (0.1 ppm, agent sensitized time 120 second); 4.25 TCID50/50 μL unit (10^n) in experiment [2] (1 ppm, agent sensitized time 0 second); 4 TCID50/50 μL unit (10^n) in experiment [2] (1 ppm, agent sensitized time 30 second). The “Viral infectivity titer TCID50” value in experiment [2] (1 ppm, agent sensitized time 60 second) was 3.75 TCID50/50 μL unit (10^n); in experiment [2] (1 ppm, agent sensitized time 120 second) it was 3.75 TCID50/50 μL unit (10^n); in experiment [2] (10 ppm, agent sensitized time 0 second), 4.25 TCID50/50 μL unit (10^n); in experiment [2] (10 ppm, agent sensitized time 30 second), 0 TCID50/50 μL unit (10^n); in experiment [2] (10 ppm, agent sensitized time 60 second), 0 TCID50/50 μL unit (10^n); in experiment [2] (10 ppm, agent sensitized time 120 second), 0 TCID50/50 μL unit (10^n).
